Laboratory results as given in patent US10138207B2, “Benzomorphan analogs and the use thereof” (priority 2012, dated 2018).
Like-named read-outs stand apart in the source and are kept apart here.

Tests used:
μ-opioid receptor [1] = target: T1, μ-opioid receptor (Homo sapiens, UniProt P35372); assay: μ-opioid receptor [35S]GTPγS functional assay, U-2 OS cells; format: biochemical; parameters: expressed in transfected cells; host or cells: U-2 OS; settings: U-2 OS cells; for EC50: read-out: GTPγS μ EC50; for Emax: read-out: GTPγS μ Emax
κ opioid receptor [2] = target: T2, κ opioid receptor (Homo sapiens, UniProt P41145); assay: κ-opioid receptor [35S]GTPγS functional assay, HEK-293 or CHO cells; format: biochemical; parameters: expressed in transfected cells; host or cells: U-2 OS (in-house membranes); settings: for Emax: relative to U69,593
Method: Membranes from recombinant HEK-293 cells, CHO or U-2 OS cells expressing the recombinant human κ opioid receptor (κ) were prepared by lysing cells in ice cold hypotonic buffer (2.5 mM MgCl2, 50 mM HEPES, pH 7.4) (10 mL/10 cm dish) followed by homogenization with a tissue grinder/Teflon pestle. Membranes from a cell line naturally expressing kappa opioid receptors can also be used. Membranes were collected by centrifugation at 30,000×g for 15 min at 4° C. and pellets were resuspended in hypotonic buffer to a final concentration of 1-3 mg/mL. Protein concentrations were determined using the BioRad protein assay reagent with bovine serum albumen as standard. Aliquots of κ receptor membranes were stored at −80° C.
Plates were incubated for 30 min at a temperature of about 25° C. with shaking.

κ opioid receptor [3] = target: T2, κ opioid receptor; assay: biochemical; format: binding; parameters: expressed in transfected cells; host or cells: HEK 293 (in-house membrane prep); settings: HEK-293 or CHO cells
μ-opioid receptor [4] = target: T1, μ-opioid receptor; assay: μ-opioid receptor [35S]GTPγS functional assay, HEK-293 or CHO cells; settings: for Emax: read-out: GTPγS μ Emax
[5] = HEK-293 or CHO cells, bound in μM, read-out: GTPγS κ EC50
[6] = HEK-293 or CHO cells, read-out: GTPγS κ EC50

T2 sequence (P41145 whole entry): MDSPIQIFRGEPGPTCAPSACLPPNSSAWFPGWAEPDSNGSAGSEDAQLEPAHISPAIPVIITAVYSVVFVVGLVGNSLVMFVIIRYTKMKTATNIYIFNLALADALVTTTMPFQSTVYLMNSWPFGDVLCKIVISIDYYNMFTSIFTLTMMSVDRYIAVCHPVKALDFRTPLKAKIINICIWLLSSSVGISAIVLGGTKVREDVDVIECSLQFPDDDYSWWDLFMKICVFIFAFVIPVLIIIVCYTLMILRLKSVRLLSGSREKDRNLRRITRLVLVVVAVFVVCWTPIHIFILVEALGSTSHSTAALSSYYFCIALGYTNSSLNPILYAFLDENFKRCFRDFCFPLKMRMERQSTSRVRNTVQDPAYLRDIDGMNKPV
T1 sequence (P35372 whole entry, species assumed): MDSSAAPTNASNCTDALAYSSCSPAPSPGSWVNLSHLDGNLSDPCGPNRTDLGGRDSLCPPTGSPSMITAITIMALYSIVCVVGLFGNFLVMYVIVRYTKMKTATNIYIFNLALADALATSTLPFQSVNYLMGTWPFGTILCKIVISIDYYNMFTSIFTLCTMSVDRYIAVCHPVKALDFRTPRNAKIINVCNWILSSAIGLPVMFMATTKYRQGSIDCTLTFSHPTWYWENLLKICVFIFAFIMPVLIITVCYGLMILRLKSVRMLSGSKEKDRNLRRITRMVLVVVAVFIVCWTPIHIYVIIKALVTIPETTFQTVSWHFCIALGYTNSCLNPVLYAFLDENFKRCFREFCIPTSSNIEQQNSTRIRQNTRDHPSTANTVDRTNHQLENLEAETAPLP

SMILES | EC50 (μ-opioid receptor [1]) [nM] | Emax (μ-opioid receptor [1]; relative to DAMGO) [%] | EC50 (κ opioid receptor [2]; [5]) [µM] | Emax (κ opioid receptor [2]; HEK-293 or CHO cells) [%] | Ki (κ opioid receptor [3]) [nM] | EC50 (κ opioid receptor [2]; [6]) [µM] | EC50 (μ-opioid receptor [4]) [nM] | Emax (μ-opioid receptor [4]) [%] | GTPγS μ Emax (μ-opioid receptor [1]; relative to DAMGO) [%] | EC50 (κ opioid receptor [2]) [µM]
CCN(C(=O)/C=C/c1ccoc1)C1C2Cc3ccc(OC)cc3[C@@]1(C)CCN2C (stereo in doubt) [Compound 25, (E)-N-ethyl-3-(furan-3-yl)-N-((2R,6R,11S)-8-methoxy-3,6-dimethyl-1,2,3,4,5,6-hexahydro-2,6-methanobenzo[d]azocin-11-yl)acrylamide] | 49.8 ± 12.1 | 102 ± 1.67 | > 20 | -1 | 147 ± 18.4 | – | – | – | – | –
CN1CC[C@]2(C)c3cc(O)ccc3CC1C2N(C)C(=O)Cc1ccc(S(C)(=O)=O)cc1 (stereo in doubt) [Compound 27, N-((2R,6R,11S)-8-hydroxy-3,6-dimethyl-1,2,3,4,5,6-hexahydro-2,6-methanobenzo[d]azocin-11-yl)-N-methyl-2-(4-(methylsulfonyl)phenyl)acetamide] | 1.51 ± 0.24 | 103 ± 2.33 | > 20 | – | 35.2 ± 9.38 | – | – | – | – | –
CN1CC[C@]2(C)c3cc(O)ccc3CC1C2N(C)CCc1ccccc1 (stereo in doubt) [Compound 29, (2R,6R,11S)-3,6-dimethyl-11-(methyl(phenethyl)amino)-1,2,3,4,5,6-hexahydro-2,6-methanobenzo[d]azocin-8-ol] | 0.044 | 100 ± 1.45 | – | 28.2 ± 4.66 | 30.1 ± 11.8 | 0.233 ± 0.0749 | – | – | – | –
CN1CC[C@]2(C)c3cc(O)ccc3CC1C2N(C)c1ccc(CCS(N)(=O)=O)cc1 (stereo in doubt) [Compound 51, 2-(4-(((2R,6R,11S)-8-hydroxy-3,6-dimethyl-1,2,3,4,5,6-hexahydro-2,6-methanobenzo[d]azocin-11-yl)(methyl)amino)phenyl)ethanesulfonamide] | 0.21 ± 0.021 | 113 ± 2.65 | > 20 | – | 7.83 ± 0.95 | – | 1.44 ± 0.44 | 100 ± 7.22 | – | –
CC(C)CC(NC(=O)N(C)C1[C@H]2Cc3ccc(O)cc3[C@]1(C)CCN2C)C(=O)O (stereo in doubt) [Compound 76, 2-(3-((2R,6S,11S)-8-hydroxy-3,6-dimethyl-1,2,3,4,5,6-hexahydro-2,6-methanobenzo[d]azocin-11-yl)-3-methylureido)-4-methylpentanoic acid] | – | – | > 20 | -0.33 ± 0.67 | 107 ± 1.33 | – | 811 ± 53 | 79.3 ± 3.48 | – | –
CN1CC[C@]2(C)c3cc(O)ccc3CC1C2N(C)C(=O)Nc1ccc(C#N)cc1 (stereo in doubt) [Compound 78, 3-(4-cyanophenyl)-1-((2R,6R,11S)-8-hydroxy-3,6-dimethyl-1,2,3,4,5,6-hexahydro-2,6-methanobenzo[d]azocin-11-yl)-1-methylurea] | 6.09 ± 0.45 | 109 ± 3.28 | > 20 | – | 17.9 ± 4.33 | – | – | – | – | –
CN(C(=O)Nc1ccc(C#N)cc1)C1C2Cc3ccc(O)cc3[C@@]1(C)CCN2CCc1ccccc1 (stereo in doubt) [Compound 87, 3-(4-cyanophenyl)-1-((2R,6R,11S)-8-hydroxy-6-methyl-3-phenethyl-1,2,3,4,5,6-hexahydro-2,6-methanobenzo[d]azocin-11-yl)-1-methylurea] | 2.08 ± 0.12 | 99.3 ± 2.03 | – | 10.8 ± 1.49 | 1.21 ± 0.24 | 0.024 ± 0.00194 | 5.29 ± 1.1 | 96.3 ± 2.96 | – | –
CN(C(=O)Nc1ccc(C#N)cc1)C1C2Cc3ccc(O)cc3[C@@]1(C)CCN2Cc1ccoc1 (stereo in doubt) [Compound 90, 3-(4-cyanophenyl)-1-((2R,6R,11S)-3-(furan-3-ylmethyl)-8-hydroxy-6-methyl-1,2,3,4,5,6-hexahydro-2,6-methanobenzo[d]azocin-11-yl)-1-methylurea] | 7.02 ± 1.89 | 14 ± 1 | > 20 | 1 | 1.74 ± 0.45 | – | 5.92 ± 1.82 | 32.7 ± 5.78 | – | –
CN(C)C(=O)C(CCN1CC[C@]2(C)c3cc(O)ccc3CC1[C@H]2O)(c1ccccc1)c1ccccc1 [Compound 22, 4-((6R,11S)-8,11-dihydroxy-6-methyl-1,2,5,6-tetrahydro-2,6-methanobenzo[d]azocin-3(4H)-yl)-N,N-dimethyl-2,2-diphenylbutanamide] | 300 ± 45.8 | 71 ± 3.46 | > 20 | – | 25.7 ± 8.74 | – | – | – | – | –
CN1CC[C@@]2(C)c3cc(O)ccc3C[C@@H]1[C@@H]2NCC1CCN(C(=O)OC(C)(C)C)CC1 [Compound 30, tert-butyl 4-((((2R,6S,11R)-8-hydroxy-3,6-dimethyl-1,2,3,4,5,6-hexahydro-2,6-methanobenzo[d]azocin-11-yl)amino)methyl)piperidine-1-carboxylate] | 33.6 ± 8.17 | – | > 20 | 0.33 ± 0.67 | 7.66 ± 1.96 | – | 270 ± 33.9 | 49.7 ± 3.67 | 91.70 ± 4.33 | –
CN1CC[C@]2(C)c3cc(O)ccc3CC1[C@@H]2COc1ncc([C@H](O)CO)cc1Cl [Compound 43, (1S)-1-(5-chloro-6-(((6S,11R)-8-hydroxy-3,6-dimethyl-1,2,3,4,5,6-hexahydro-2,6-methanobenzo[d]azocin-11-yl)methoxy)pyridin-3-yl)ethane-1,2-diol] | – | – | – | – | 516 ± 126 | – | 3390 ± 63.4 | 24.7 ± 3.28 | – | > 20
CN1CC[C@]2(C)c3cc(O)ccc3CC1[C@H]2COc1ccc(C(N)=O)cc1 [Compound 44, 4-(((6S,11S)-8-hydroxy-3,6-dimethyl-1,2,3,4,5,6-hexahydro-2,6-methanobenzo[d]azocin-11-yl)methoxy)benzamide] | – | – | – | 17.7 ± 1.2 | 166 ± 62.3 | – | 718 ± 249 | 65 ± 2.52 | – | 0.394 ± 0.0884
COc1ccc2c(c1)[C@@]1(C)CCN(C)C(C2)[C@@H]1c1cccc(C(N)=O)c1 [Compound 54, 3-((6S,11R)-8-methoxy-3,6-dimethyl-1,2,3,4,5,6-hexahydro-2,6-methanobenzo[d]azocin-11-yl)benzamide] | – | – | > 20 | – | 259 ± 33.6 | – | > 20000 | – | – | –
CN[C@@H]1[C@H]2Cc3ccc(OC)cc3[C@@]1(C)CCN2CC1CC1 [Compound 56, (2R,6R,11S)-3-(cyclopropylmethyl)-8-methoxy-N,6-dimethyl-1,2,3,4,5,6-hexahydro-2,6-methanobenzo[d]azocin-11-amine] | – | – | – | 25.7 ± 1.67 | 170 ± 51.9 | – | 3810 ± 726 | 36.7 ± 7.22 | – | 2.58 ± 0.721
COc1ccc2c(c1)[C@@]1(C)CCN(C)C(C2)[C@]1(O)c1cccc(C(N)=O)c1 [Compound 63, 3-((6R,11S)-11-hydroxy-8-methoxy-3,6-dimethyl-1,2,3,4,5,6-hexahydro-2,6-methanobenzo[d]azocin-11-yl)benzamide] | – | – | > 20 | – | 340 ± 90.9 | – | > 20000 | – | – | –
CN(C(=O)Nc1ccc(C#N)cc1)[C@@H]1C2Cc3ccc(O)cc3[C@@]1(C)CCN2CC1CC1 [Compound 81, 3-(4-cyanophenyl)-1-((6R,11S)-3-(cyclopropylmethyl)-8-hydroxy-6-methyl-1,2,3,4,5,6-hexahydro-2,6-methanobenzo[d]azocin-11-yl)-1-methylurea] | – | – | > 20 | – | 36.6 ± 4.94 | – | 1230 ± 173 | 31.2 ± 2.87 | – | –
